Test results from patent US9513294B2, “Megastokes amino-triazolyl-BODIPY compounds and applications to live neuron staining and human serum albumin FA1 drug site probing” (National University of Singapore, priority 2012, dated 2016).
Each block holds one compound with its values, some of them ahead of it.

Tests used:
[1] = Quantum yield measurements versus Acridine Yellow in EtOH; format: physicochemical; conditions: for φ (quantum yield): excitation 460 nm; for φ (%): quantum yield
How it was run: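 Emission areas integrated over 510–700 nm were compared with Acridine Yellow in ethanol (Φ=0.47), all excited at 460 nm. The comparative equation was normalized to excitation-wavelength absorbance and solvent refractive index.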

[2] = Absorbance and fluorescence emission spectra (SpectraMax M2); format: physicochemical; conditions: for λmax Absorp. (nm) / λmax Emission (nm): MKCA compound library; for λmax Absorp. (nm) / λmax Abs. (nm): absorbance maximum; for λmax Emission (nm) / λmax Em. (nm): fluorescence emission maximum; for λmax Abs. (nm) / λmax Em. (nm): MKAC compound library
How it was run: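 Spectroscopic data, including quantum yields, were recorded with a SpectraMax M2 instrument and analysed in GraphPrism.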

SMILES: CC(C)(C)c1ccc(-c2cn(-c3ccc4n3[B-](F)(F)[N+]3=C(N5CCCCC5)C=CC3=C4c3ccc(NC(=O)CCl)cc3)nn2)cc1 [BDCCA-11]
- φ (quantum yield) ([1]; BDCCA library, Table 4): 1.3%
- λmax Absorp. ([2]; BDCCA library, Table 4): 464 nm
- λmax Emission ([2]; BDCCA library, Table 4): 587 nm

SMILES: Nc1ccc(C2=C3C=CC(N4CCc5ccccc5C4)=[N+]3[B-](F)(F)n3c2ccc3-n2cc(CC3CCCCC3)nn2)cc1 [MK66-8]
- φ (quantum yield) ([1]; MK library, Table 5): 0.12%
- λmax Absorp. ([2]; MK library, Table 5): 480 nm
- λmax Emission ([2]; MK library, Table 5): 590 nm

SMILES: CCOc1ccccc1CNC1=[N+]2C(=C(c3ccc(N)cc3)c3ccc(-n4cc(CC(C)C)nn4)n3[B-]2(F)F)C=C1 [MK103-43]
- φ (quantum yield) ([1]; MK library, Table 5): 1.30%
- λmax Absorp. ([2]; MK library, Table 5): 474 nm
- λmax Emission ([2]; MK library, Table 5): 563 nm

SMILES: CC(=O)Nc1ccc(C2=C3C=CC(N4CCCCC4)=[N+]3[B-](F)(F)n3c2ccc3-n2cc(CN(C)C)nn2)cc1 [BDCAC-2]
- φ (quantum yield) ([1]; BDCAC library, Table 3): 0.8%
- λmax Absorp. ([2]; BDCAC library, Table 3): 466 nm
- λmax Emission ([2]; BDCAC library, Table 3): 591 nm

SMILES: CCCCc1ccc(-c2cn(-c3ccc4n3[B-](F)(F)[N+]3=C(N5CCCCC5)C=CC3=C4c3ccc(NC(C)=O)cc3)nn2)cc1 [BDCAC-12]
- φ (quantum yield) ([1]; BDCAC library, Table 3): 1.6%
- λmax Absorp. ([2]; BDCAC library, Table 3): 464 nm
- λmax Emission ([2]; BDCAC library, Table 3): 558 nm

SMILES: CC(=O)Nc1ccc(C2=C3C=CC(N4CCCCC4)=[N+]3[B-](F)(F)n3c2ccc3-n2cc(C3CCCC3)nn2)cc1 [BDCAC-5]
- φ (quantum yield) ([1]; BDCAC library, Table 3): 1.3%
- λmax Absorp. ([2]; BDCAC library, Table 3): 469 nm
- λmax Emission ([2]; BDCAC library, Table 3): 588 nm

SMILES: CN(C)Cc1cn(-c2ccc3n2[B-](F)(F)[N+]2=C(N4CCCCC4)C=CC2=C3c2ccc(N)cc2)nn1 [BDC-2]
- φ (quantum yield) ([1]; BDC library, Table 2): 0.13%
- λmax Absorp. ([2]; BDC library, Table 2): 469 nm
- λmax Emission ([2]; BDC library, Table 2): 587 nm

SMILES: CC(=O)Nc1ccc(C2=C3C=CC(N4CCCCC4)=[N+]3[B-](F)(F)n3c2ccc3-n2cc(-c3ccc(OC(F)(F)F)cc3)nn2)cc1 [BDCAC-15]
- φ (quantum yield) ([1]; BDCAC library, Table 3): 2.7%
- λmax Absorp. ([2]; BDCAC library, Table 3): 463 nm
- λmax Emission ([2]; BDCAC library, Table 3): 537 nm

SMILES: O=C(CCl)Nc1ccc(C2=C3C=CC(N4CCCCC4)=[N+]3[B-](F)(F)n3c2ccc3-n2cc(-c3ccccc3)nn2)cc1 [BDCCA-9]
- φ (quantum yield) ([1]; BDCCA library, Table 4): 1.1%
- λmax Absorp. ([2]; BDCCA library, Table 4): 464 nm
- λmax Emission ([2]; BDCCA library, Table 4): 577 nm

SMILES: Nc1ccc(C2=C3C=CC(N4CCCCC4)=[N+]3[B-](F)(F)n3c2ccc3-n2cc(-c3ccc(-c4ccccc4)cc3)nn2)cc1 [BDC-23]
- φ (quantum yield) ([1]; BDC library, Table 2): 0.20%
- λmax Absorp. ([2]; BDC library, Table 2): 472 nm
- λmax Emission ([2]; BDC library, Table 2): 570 nm

SMILES: Cc1ccc(-c2cn(-c3ccc4n3[B-](F)(F)[N+]3=C(N5CCCCC5)C=CC3=C4c3ccc(N)cc3)nn2)cc1 [BDC-10]
- φ (quantum yield) ([1]; BDC library, Table 2): 0.28%
- λmax Absorp. ([2]; BDC library, Table 2): 470 nm
- λmax Emission ([2]; BDC library, Table 2): 564 nm

SMILES: O=C(CCl)Nc1ccc(C2=C3C=CC(N4CCCCC4)=[N+]3[B-](F)(F)n3c2ccc3-n2cc(C3CC3)nn2)cc1 [BDCCA-4]
- φ (quantum yield) ([1]; BDCCA library, Table 4): 1.1%
- λmax Absorp. ([2]; BDCCA library, Table 4): 467 nm
- λmax Emission ([2]; BDCCA library, Table 4): 577 nm

Continued, values first:

- φ (%) ([1]; MKCA compound library): 33.76%
- λmax Absorp. (nm) [2]: 465 nm
- λmax Emission (nm) [2]: 563 nm
SMILES: CCOc1ccccc1CNC1=[N+]2C(=C(c3ccc(NC(=O)CCl)cc3)c3ccc(-n4cc(CC(C)C)nn4)n3[B-]2(F)F)C=C1 [MKCA103-43]

- φ (%) ([1]; MKAC compound library): 11.03%
- λmax Abs. (nm) [2]: 465 nm
- λmax Em. (nm) [2]: 561 nm
SMILES: CCCc1cn(-c2ccc3n2[B-](F)(F)[N+]2=C(NCc4cc(OC)ccc4OC)C=CC2=C3c2ccc(NC(C)=O)cc2)nn1 [MKAC181-48]

- φ (%) ([1]; MKCA compound library): 30.95%
- λmax Absorp. (nm) [2]: 464 nm
- λmax Emission (nm) [2]: 562 nm
SMILES: Cc1ccccc1CNC1=[N+]2C(=C(c3ccc(NC(=O)CCl)cc3)c3ccc(-n4cc(CC5CCCCC5)nn4)n3[B-]2(F)F)C=C1 [MKCA101-8]

- φ (%) ([1]; MKAC compound library): 3.47%
- λmax Abs. (nm) [2]: 467 nm
- λmax Em. (nm) [2]: 580 nm
SMILES: CC(=O)Nc1ccc(C2=C3C=CC(N4CC(C)OC(C)C4)=[N+]3[B-](F)(F)n3c2ccc3-n2cc(C3CCCC3)nn2)cc1 (stereo not drawn) [MKAC20-5]

- φ (%) ([1]; MKCA compound library): 4.97%
- λmax Absorp. (nm) [2]: 465 nm
- λmax Emission (nm) [2]: 575 nm
SMILES: CC(C)Cc1cn(-c2ccc3n2[B-](F)(F)[N+]2=C(N(C)Cc4ccccc4)C=CC2=C3c2ccc(NC(=O)CCl)cc2)nn1 [MKCA195-43]

- φ (%) ([1]; MKAC compound library): 1.44%
- λmax Abs. (nm) [2]: 468 nm
- λmax Em. (nm) [2]: 582 nm
SMILES: CC(=O)Nc1ccc(C2=C3C=CC(N4CCc5ccccc5C4)=[N+]3[B-](F)(F)n3c2ccc3-n2cc(CO)nn2)cc1 [MKAC66-70]

- φ (quantum yield) ([1]; MK library, Table 5): 0.56%
- λmax Absorp. ([2]; MK library, Table 5): 476 nm
- λmax Emission ([2]; MK library, Table 5): 563 nm
SMILES: Nc1ccc(C2=C3C=CC(NCc4cc(F)cc(F)c4)=[N+]3[B-](F)(F)n3c2ccc3-n2cc(CC3CCCCC3)nn2)cc1 [MK412-8]

- φ (%) ([1]; MKAC compound library): 1.76%
- λmax Abs. (nm) [2]: 470 nm
- λmax Em. (nm) [2]: 580 nm
SMILES: CC(=O)Nc1ccc(C2=C3C=CC(N4CCc5ccccc5C4)=[N+]3[B-](F)(F)n3c2ccc3-n2cc(CCc3ccccc3)nn2)cc1 [MKAC66-19]
